Results as given in patent US20220110331A1, “COMPOSITION FOR PROMOTING GROWTH OF EFFECTIVE MICROORGANISM AND CONTROLLING PLANT DISEASE USING PREBIOTICS, AND USE THEREOF” (priority 2018, published 2022).

Experiments:
[1] = system: Streptomyces badius SP6C4 strain; assay: Amino acid preference of effective microorganism on Biolog PM3B nitrogen source plate (redox dye colour); type: cell-based; conditions: 72 hours at 28° C., then dye and culture at 37° C. for 24 and 48 hours, naked eye
Description: Single colony of Streptomyces badius SP6C4 strain with deposit number of KCCM11703P was inoculated by streaking on MS medium (containing 20 g of mannitol, 20 g of soya, and 20 g of agar in 1 liter distilled water) and cultured for 7 days at 28° C. […] Thus-completed spore stock was diluted in sterile water, and, after adjusting the concentration to OD595 of 0.2±0.02, carrageenan stock (0.2% carrageenan and 50 mL distilled water) was prepared. The spore stock (1.5 mL) was admixed with 0.2% carrageenan stock (13.5 mL) and then the mixture (100 μl) was aliquoted onto a biolog plate (PM3B MICROPLATE™ Nitrogen Sources) followed by sealing the plate with a transparent film sheet. After 72 hours at 28° C., Redox dye mix MA (Biolog, Hayward, Calif.) was aliquoted to each well (10 μl per well) and sealed with a transparent film and a wrap to block the incorporation of CO2 from outside. Culture was carried out at 37° C. for 24 hours and 48 hours, respectively. […] Determination was made based on the assumption that stronger purple color corresponds to higher growth of the microorganism.

[2] = system: gray mold; assay: Strawberry field test, incidence rate of gray mold; type: in vivo, Botrytis cinerea; conditions: foliar application of 2% amino acid; for incidence rate of gray mold (in words): 8 treatments, decreased in order of glutamic acid, proline, tryptophan; for incidence rate of gray mold: 8 treatments with interval of 2 weeks, non-treatment group 35%
Description: (§1) Specifically, the test was carried out with an interval of 2 weeks during the cultivation period of strawberry. Length of 5M was set as a single section and foliar application was performed for three sections. For each section, 100 strawberries were randomly selected and incidence rate of the disease was determined. As a treatment process, each amino acid was diluted to concentration of 2% in 15 liter distilled water, and the mixture (5 liter) was applied to each section. The treatment was carried out 8 times with an interval of 2 weeks.

[3] = system: bloom blight; assay: Strawberry field test, incidence rate of bloom blight; type: in vivo, Cladosporium cladosporioides; conditions: foliar application of 2% amino acid, 8 treatments with interval of 2 weeks, non-treatment group up to 50%
Description: as §1

[4] = system: Streptomyces badius SP6C4 strain; assay: Growth promotion of effective microorganism by amino acids (OD600); type: cell-based; conditions: fifth day of culture, 10 μl of amino acids at 2% added, 28° C.; basal medium control OD600 0.5
Description: To 10 μl of a spore stock of Streptomyces badius SP6C4 strain (10^5 cfu/mL), 80 μl of sterile water was added. After mixing with 10 μl of amino acids at concentration of 2%, the strain was cultured in a shaking incubator at a condition of 28° C. Growth of SP6C4 strain was examined by OD600 for 5 days with an interval of 24 hours.

[5] = system: Streptomyces badius SP6C4 strain; assay: Maintenance of density of effective microorganism on strawberry flowers after amino acid treatment (qPCR of lanM gene); type: in vivo; conditions: continuously maintained except the first treatment out of 8 treatments
Description: To determine whether or not the density of effective microorganism is maintained even after a treatment of the amino acids, three strawberry flowers were collected, 3 times repeatedly, in each treatment period during which the test of inhibiting gray mold by the strawberry field test of Example 3 is carried out. After transfer to the lab under cold storage, 3 flowers were added to 30 mL of 1×PBS buffer and subjected to an ultrasonication treatment for 10 minutes. 3 mL of the supernatant was centrifuged for 10 minutes at a rate of 13,000 rpm, 1 mL of the resulting supernatant was discarded, and the pellet was dissolved in the remaining supernatant (2 mL). 500 μl of the mixture was admixed with 500 μl CTAB buffer followed by DNA purification. Each DNA was subjected to qPCR (quantitative polymerase chain reaction) by using lanM gene specific primers of Streptomyces badius SP6C4 strain (forward direction: 5′-gtacggatctgcaccacga-3′ (SEQ ID NO: 1), reverse direction: 5′-[…]-3′ (SEQ ID NO: 2)).

[6] = system: Fusarium oxysporum; assay: Wilt disease control after coating tomato seeds with glutamic acid; type: in vivo; conditions: tomato seeds coated with 2% glutamic acid and 0.1% CMC, then pathogen; Day 3 (Early time) and Day 10 (Late time); pathogen only about 50% and 100%
Description: By using a concentrate of glutamic acid (20% (w/v)) and a concentrate of CMC (carboxyl methyl cellulose) (1% (w/v)) as a spreader, a mixture solution was prepared such that they have concentration of 2% and 0.1%, respectively. Forty to fifty tomato seeds of which surfaces have been sterilized with 70% (v/v) ethanol and 1% (v/v) sodium hypochlorite were added to 1 mL of the mixture solution and dried for 12 hours in a sterile bench at room temperature condition. After that, the coated seeds were planted to a square pot (3 cm×3 cm), 1 to 2 seeds per pot. Fusarium oxysporum spores as wilt pathogen were added in an amount of 3 mL with concentration of 10^5×1.0 CFU/mL. The treatment group obtained after completing pathogen inoculation to the seeds was transferred to a plant growth chamber which is set at 28° C. for 16 hours of light period and 25° C. for 8 hours of dark period. On Day 3 (Early time) and Day 10 (Late time) after transfer to a plant growth chamber, the incidence rate of wilt disease was examined. As a control, a non-treatment group and a group treated only with the pathogen were examined, each repeated 10 times.

[7] = system: Fusarium oxysporum; assay: Wilt disease control after treating underground part of tomato plant with glutamic acid; type: in vivo; conditions: 2% glutamic acid solution 20 mL applied 2 times to tomato plant
Description: To a tomato plant grown to have aboveground part of 8 to 10 cm, 2% glutamic acid solution was applied 2 times, in an amount of 20 mL with an interval of 5 days. […] A wound was created, by using a 5 mL tip, on the underground part of plant which has been treated twice with glutamic acid for 10 days, and then the spore suspension (10 mL) was applied to a pot with diameter of 9 cm. The plant inoculated with the pathogen was transferred to a plant growth chamber which is set at 28° C. for 16 hours of light period and 25° C. for 8 hours of dark period. Then, the incidence rate of disease was determined with an interval of 1 week. As a control, a group treated only with the pathogen and a plant not treated with any were tested, each repeated 5 times.

Compound | color change with Redox dye (stronger purple color corresponds to higher growth of the microorganism) [1] | incidence rate of gray mold (in words) [2] | incidence rate of gray mold [2] | other results
N=C(N)NCCC[C@H](N)C(=O)O [arginine] | darkest purple color |  |  | 
N[C@@H](Cc1c[nH]c2ccccc12)C(=O)O [tryptophan] |  | incidence rate has decreased |  | 
C[C@H](N)C(=O)O [alanine] | darkest purple color |  |  | 
NC(=O)C[C@H](N)C(=O)O [asparagine, reference compound] |  |  | about 25% | incidence rate of bloom blight [3]: up to 40%
N[C@@H](CCC(=O)O)C(=O)O [glutamic acid] | darkest purple color |  | less than 15% | OD600 (growth of SP6C4 strain) [4]: 1.8; microorganism concentration (SP6C4 on strawberry flowers) [5]: ≥ 10^5 cfu/mL; incidence rate of wilt disease [6]: wilt disease does not occur; incidence rate of disease (wilt) ([7]; for 2 weeks after the initial pathogen treatment): no significant difference; incidence rate of disease (wilt) ([7]; from the week 4, pathogen only 100%): less than 15%
O=C(O)[C@@H]1CCCN1 [proline] |  | incidence rate has decreased |  | 
